The text below walks through data of publication PMC11154727, “Systematic Studies on the Anti-SARS-CoV-2 Mechanisms of Tea Polyphenol-Related Natural Products” (ACS Omega, 2024).

Where two headings read alike, the source gives them in different places.

Data set [1] in a line: Cytotoxicity, acid phosphatase (ACP) assay. It counts as cell-based. Conditions: African green monkey. Here is the method:
(§1) Cytotoxicity of the compounds was determined using the acid phosphatase (ACP) assay. Vero E6 cells were seeded onto a 96-well culture plate at a concentration of 2 × 10^4 cells per well. Next day, the medium was removed, and each well was washed once with PBS before adding DMEM containing 2% FBS and different concentrations of test compounds. After 3 days of incubation at 37 °C, the medium was removed, and each well was washed once with PBS. Next, a buffer containing 0.1 M sodium acetate (pH = 5.0), 0.1% Triton X-100, and 5 mM p-nitrophenyl phosphate was added. After incubating at 37 °C for 30 min, 1 N NaOH was added to stop the reaction. The absorbance was measured using an ELISA reader (VERSAmax, Molecular Devices, Sunnyvale, CA) at a wavelength of 405 nm. The percentage of cell viability was calculated by using the following formula: Viability % = [ (At/As) × 100]%, where At and As represent the absorbance of the test compound and the solvent control, respectively. […] For each compound, the measurements were repeated at least 3 times to determine the averaged CC50 values and standard deviation.

The test system of data set [2] is SARS-CoV-2 Omicron BA.5 (NTU280). The data set is described as follows: Antiviral plaque reduction assay, Omicron BA.5 strain, Vero E6 cells. It counts as cell-based. A general note: Plaque reduction counts the foci of infection that form in a cell layer.
A further data set has as its system recombinant ACE2 and RBD. Conditions: at 60 μM; cited from earlier work.
A further data set concerns wild-type SARS-CoV-2. The data set is described as follows: microbe, parasite or virus in culture. It counts as cell-based. Conditions: Severe acute respiratory syndrome coronavirus 2, read-out: EC50 wild-type strain.
For data set [3], the system named is SARS-CoV-2 Delta virus (NTU92). The data set is described as follows: microbe, parasite or virus in culture. It counts as cell-based.
A further data set concerns the target SARS-CoV-2 3CL^pro (Severe acute respiratory syndrome coronavirus 2, UniProt P0DTD1). The data set can be described thus: 3CLpro inhibition (fluorogenic peptide). It counts as biochemical.
For another data set, the target named is T1, furin (Homo sapiens, UniProt P09958).
T1 construct: purchased BPS Bioscience 78040
T1 sequence (P09958 108-794): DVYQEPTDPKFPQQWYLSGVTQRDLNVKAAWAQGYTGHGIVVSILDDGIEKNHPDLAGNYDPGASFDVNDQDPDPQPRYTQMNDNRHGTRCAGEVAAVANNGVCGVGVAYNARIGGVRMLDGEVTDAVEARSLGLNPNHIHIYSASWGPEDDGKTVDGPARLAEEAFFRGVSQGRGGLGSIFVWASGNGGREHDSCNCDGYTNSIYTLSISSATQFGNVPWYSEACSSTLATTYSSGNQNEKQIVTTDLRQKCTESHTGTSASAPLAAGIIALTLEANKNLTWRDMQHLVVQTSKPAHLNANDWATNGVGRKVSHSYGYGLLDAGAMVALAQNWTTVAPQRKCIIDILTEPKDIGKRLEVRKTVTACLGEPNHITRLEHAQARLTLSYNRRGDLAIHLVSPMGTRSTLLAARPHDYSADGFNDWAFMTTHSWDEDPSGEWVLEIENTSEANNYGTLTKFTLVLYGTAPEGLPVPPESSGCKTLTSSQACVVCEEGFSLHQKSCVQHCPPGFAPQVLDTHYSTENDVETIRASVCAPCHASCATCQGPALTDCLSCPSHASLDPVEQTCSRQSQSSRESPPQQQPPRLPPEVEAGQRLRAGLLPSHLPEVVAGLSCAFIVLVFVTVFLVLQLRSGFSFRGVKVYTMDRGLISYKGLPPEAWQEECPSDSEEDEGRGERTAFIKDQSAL
The data set can be described thus: Furin inhibition (Furin Protease Assay Kit, fluorescence). It counts as biochemical.

In a further data set the target is T2, cathepsin L (Homo sapiens, UniProt P07711).
T2 construct: purchased Abcam
T2 sequence (P07711 114-333): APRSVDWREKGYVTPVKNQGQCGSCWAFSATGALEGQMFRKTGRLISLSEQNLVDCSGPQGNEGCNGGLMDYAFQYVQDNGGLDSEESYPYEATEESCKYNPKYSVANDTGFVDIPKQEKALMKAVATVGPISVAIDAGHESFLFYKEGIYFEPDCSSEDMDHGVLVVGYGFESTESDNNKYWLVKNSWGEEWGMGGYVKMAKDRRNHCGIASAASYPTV
The data set can be described thus: Cathepsin L inhibition (Cathepsin L Protease Assay Kit, fluorescence). It counts as biochemical.

The target of a further data set is T3, TMPRSS2 (Homo sapiens, UniProt O15393).
T3 construct: The recombinant TMPRSS2 ectodomain (residues 109–492), excluding the transmembrane domain; His tag; made in house; host or cells: ExpiSf9 insect cells (baculovirus)
T3 sequence (O15393 109-492 S251D/R252D/Q253D/S254D/R255K limits assumed): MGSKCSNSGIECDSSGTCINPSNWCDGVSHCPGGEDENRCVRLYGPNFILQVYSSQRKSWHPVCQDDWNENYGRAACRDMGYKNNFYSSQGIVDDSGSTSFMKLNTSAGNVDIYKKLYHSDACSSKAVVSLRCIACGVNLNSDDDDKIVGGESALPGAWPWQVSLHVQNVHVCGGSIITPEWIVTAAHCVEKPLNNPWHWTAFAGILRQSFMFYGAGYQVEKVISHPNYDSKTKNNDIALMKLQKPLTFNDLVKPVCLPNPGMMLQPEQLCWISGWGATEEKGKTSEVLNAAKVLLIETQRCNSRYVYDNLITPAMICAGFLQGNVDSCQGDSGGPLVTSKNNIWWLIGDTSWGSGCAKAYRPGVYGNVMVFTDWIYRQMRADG
The data set is described as follows: TMPRSS2 inhibition (Boc-Gln-Ala-Arg-AMC fluorogenic substrate). It counts as biochemical.

Another data set deals with SARS-CoV-2 PL^pro (Severe acute respiratory syndrome coronavirus 2, UniProt P0DTD1). The data set is described as follows: PLpro inhibition (proteolytic, deubiquitinating, deISGylation activities). It counts as biochemical.
The next data set has as its target SARS-CoV-2 RdRp (Severe acute respiratory syndrome coronavirus 2, UniProt P0DTD1). The data set is described as follows: RdRp inhibition (nsp12/nsp7L8/nsp8 complex, ProFoldin kit). Conditions: triplicate. It counts as biochemical.
Another data set concerns Vero E6 cells. The data set is described as follows: Cytotoxicity, acid phosphatase (ACP) assay. It counts as cell-based. Conditions: Vero E6, 3 days. On the procedure:
as §1

Setting [4] is: Severe acute respiratory syndrome coronavirus 2, Vero C1008, Omicron BA.5, plaque reduction, Vero E6, read-out: EC50 ο BA.5 (converted).
Where [5] appears, read: 1.3 nM TMPRSS2, 10 μM substrate, triplicate.
Setting [6] is: substrate ISG15-AMC, third of three values, read-out: IC50 PL^pro, deISGylation activity.
Where [7] appears, read: substrate Ub-AMC, second of three values, read-out: IC50 PL^pro, deubiquitinating activity.
[8] abbreviates: substrate Z-Arg-Leu-Arg-Gly-Gly-AMC, first of three values, read-out: IC50 PL^pro, proteolytic activity.
Setting [9] is: Severe acute respiratory syndrome coronavirus 2, Vero C1008, Delta strain, plaque reduction, Vero E6, entry treatment, read-out: EC50 δ.
The mark [10] stands for this setting: 35 nM 3CL^pro, 6 μM substrate, read-out: IC50 3CL^pro.
Where [11] appears, read: one entry for PL^pro, the three activities not told apart, read-out: IC50 PL^pro.

Procedure for cathepsin L: Cathepsin L activity was determined using a commercial Cathepsin L Protease Assay Kit (Abcam, U.K.) in 20 μL reaction mixtures on a 384-well plate (PerkinElmer). Different concentrations of each inhibitor were added to the assay buffer supplied with dithiothreitol (DTT) in the kit, also containing 1% DMSO from the stock solutions of inhibitors. The fluorescence intensity was monitored for 30 min at excitation and emission wavelengths of 380/460 nm. The concentration-dependent inhibition curves of cathepsin L were fitted with the equation A(I) = A(0) x {1–[I/(I + IC50)]} using GraphPad Prism (v.9.4.0). The measurements were performed in triplicate to generate the averaged IC50 values and the standard deviations.
Procedure for furin: Following the protocol as described in ref ([35]) a commercial Furin Protease Assay Kit (BPS Bioscience, catalog#78040) was employed to assay furin activities. It was conducted in 20 μL reaction mixtures on a 384-well plate (PerkinElmer) comprising 0.25 ng/μL furin, 2 μM substrate, and different concentrations of inhibitors in the assay buffer with 1% DMSO from the stock solutions of compounds. Fluorescence intensity was monitored at excitation/emission wavelengths of 380/460 nm. The concentration-dependent inhibition curves of furin were fitted with the equation A(I) = A(0) x {1–[I/(I + IC50)]} using GraphPad Prism (v.9.4.0). All of the measurements were performed in triplicate to determine the averaged IC50 values and the standard deviations.

The compound `O=C(O[C@@H]1Cc2c(O)cc(O)cc2O[C@@H]1c1cc(O)c(=O)c2c(O)c(O)cc([C@H]3Oc4cc(O)cc(O)c4C[C@H]3OC(=O)c3cc(O)c(O)c(O)c3)c2c1)c1cc(O)c(O)c(O)c1` [TF3, theaflavin-3,3′-digallate] showed a CC50 at 3 days in data set [1] of more than 100 µM. Also, the EC50 was found to be 200 nM in data set [2] (Severe acute respiratory syndrome coronavirus 2, Vero C1008, read-out: EC50 ο BA.5); 300 nM with wild-type SARS-CoV-2; 200 nM in [3] (Severe acute respiratory syndrome coronavirus 2, Vero C1008). Further, in the data set on recombinant ACE2 and RBD, the “inhibition of the interaction between recombinant ACE2 and RBD” value is given as “effectively inhibiting”.

Regarding `Oc1cc(O)c2c(c1)OC(c1ccc(O)c(O)c1)C(O)C2` (stereo not shown) [catechin], the CC50 at 3 days in [1] (Vero E6 cells, Vero E6, 3 days, read-out: CC50) was 107 µM. Moreover, the IC50 was more than 100 µM against SARS-CoV-2 3CL^pro; more than 100 µM at furin (triplicate, mean ± SD); more than 100 µM against cathepsin L (triplicate, mean ± SD); more than 100 µM against TMPRSS2 (setting [5]); 17.8 ± 2.2 µM at SARS-CoV-2 PL^pro (setting [6]); 24.6 ± 3.3 µM on SARS-CoV-2 PL^pro (setting [7]). Further, the IC50 on SARS-CoV-2 PL^pro (setting [8]) was 18.7 ± 3.5 µM; on SARS-CoV-2 RdRp it was more than 100 µM. Also, the “inhibition against 3CL^pro” value against SARS-CoV-2 3CL^pro (in words) is “no inhibition”. Also, the EC50 in data set [2] (setting [4]) and in data set [3] (setting [9]) was more than 10000 nM throughout. Besides, the “inhibition of Delta SARS-CoV-2” value in data set [3] (at 10 μM) was “did not inhibit”.

In the case of `O=C(O[C@@H]1Cc2c(O)cc(O)cc2O[C@@H]1c1cc(O)c(=O)c2c(O)c(O)c(O)cc2c1)c1cc(O)c(O)c(O)c1` [epitheaflagallin-3-O-gallate], the cytotoxic concentration (CC50) at 3 days in [1] stood at 109 ± 45.3 µM. Further, the IC50 at SARS-CoV-2 3CL^pro (setting [10]) was 31.2 ± 2.6 µM; at furin (triplicate, mean ± SD) it was 55 ± 6.5 µM; against cathepsin L (triplicate, mean ± SD), more than 100 µM; on TMPRSS2 (setting [5]) it was 35.3 ± 2.7 µM; on SARS-CoV-2 PL^pro (setting [11]), more than 100 µM; against SARS-CoV-2 RdRp, more than 100 µM. The EC50 in [2] (setting [4]) is 600 nM; in data set [3] (setting [9]) it was 500 ± 100 nM.

Compound `O=C(O[C@@H]1Cc2c(O)cc(O)cc2O[C@@H]1c1cc(O)c(=O)c2c(O)c(O)cc([C@H]3Oc4cc(O)cc(O)c4C[C@H]3O)c2c1)c1cc(O)c(O)c(O)c1` [theaflavin-3-gallate] showed a half-maximal cytotoxic concentration (CC50) at 3 days in data set [1] of more than 100 µM. Further, the IC50 at SARS-CoV-2 3CL^pro (setting [10]) is 8.8 ± 0.8 µM; against furin (triplicate, mean ± SD), 36.7 ± 5.7 µM; against cathepsin L (triplicate, mean ± SD), more than 100 µM; on TMPRSS2 (setting [5]), 48.7 ± 3 µM; at SARS-CoV-2 PL^pro (setting [11]), more than 100 µM; on SARS-CoV-2 RdRp it was more than 100 µM. In addition, the EC50 in data set [2] (setting [4]) and in data set [3] (setting [9]) was 400 nM in each case.

`O=C(O[C@@H]1Cc2c(O)cc(O)cc2O[C@@H]1c1cc(O)c(O)c2c(=O)c(O)cc([C@H]3Oc4cc(O)cc(O)c4C[C@H]3O)cc12)c1cc(O)c(O)c(O)c1` [theaflavin-3′-gallate] returned a CC50 at 3 days in data set [1] of 69.9 ± 12.9 µM. Moreover, the IC50 at SARS-CoV-2 3CL^pro (setting [10]) is 6.7 ± 0.8 µM; against furin (triplicate, mean ± SD), 58.5 ± 6.4 µM; against cathepsin L (triplicate, mean ± SD), 51.1 ± 2.2 µM; at TMPRSS2 (setting [5]), 6.2 ± 0.6 µM; at SARS-CoV-2 PL^pro (setting [11]), more than 100 µM; against SARS-CoV-2 RdRp, 23.2 ± 0.4 µM. Further, the EC50 was 400 nM in data set [2] (setting [4]) and 800 ± 100 nM in data set [3] (setting [9]).

As to `O=c1c(O)cc([C@H]2Oc3cc(O)cc(O)c3C[C@H]2O)cc2c([C@H]3Oc4cc(O)cc(O)c4C[C@H]3O)cc(O)c(O)c12` [theaflavin], it took 66.4 ± 3.2 µM to reach half-maximal cytotoxicity in data set [1] (CC50 at 3 days). Moreover, the IC50 on SARS-CoV-2 3CL^pro (setting [10]) was 16.1 ± 2.5 µM; on furin (triplicate, mean ± SD), more than 100 µM; on cathepsin L (triplicate, mean ± SD), 11.1 ± 1.1 µM; against TMPRSS2 (setting [5]) it was more than 100 µM; at SARS-CoV-2 PL^pro (setting [6]) it was 11.2 ± 1.3 µM; on SARS-CoV-2 PL^pro (setting [7]), 10.6 ± 0.9 µM. Further, the IC50 at SARS-CoV-2 PL^pro (setting [8]) is 9.9 ± 0.9 µM; against SARS-CoV-2 RdRp, 40.2 ± 2.3 µM. Moreover, the figures for the EC50 in data set [2] (setting [4]) and in [3] (setting [9]) were 2200 nM and 7400 ± 100 nM, respectively.

proanthocyanidin gave a CC50 in the data set on Vero E6 cells of more than 100 µM. In addition, the IC50 on SARS-CoV-2 3CL^pro (read-out: IC50 3CL^pro) is 18.4 ± 1.1 µM; on furin, more than 100 µM; on cathepsin L it was more than 100 µM; against TMPRSS2, 47 ± 4.6 µM; at SARS-CoV-2 PL^pro (setting [6]), 7.3 ± 0.6 µM; at SARS-CoV-2 PL^pro (setting [7]) it was 3.3 ± 0.4 µM. Also, the IC50 at SARS-CoV-2 PL^pro (setting [8]) stood at 2.4 ± 0.3 µM; against SARS-CoV-2 RdRp, 23.4 ± 1.3 µM. Besides, the EC50 in data set [2] (Omicron BA.5, plaque reduction, Vero E6, read-out: EC50 ο BA.5 (converted)) is 200 nM; in [3] (Delta strain, plaque reduction, Vero E6, entry treatment, read-out: EC50 δ), 500 ± 100 nM.

As a reminder, the CC50 is the concentration giving 50% cytotoxicity. A word on the EC50: it is the concentration giving half of the maximal effect. By IC50 is commonly meant the concentration needed to halve the response being measured.
